Literature values as cited in US20060246530A1, “Method and reagent for the specifically identifying and quantifying one or more proteins in a sample” (priority 2002, published 2006).

What was measured:
[1] = stability constant, Gd
[2] = selectivity factor
[3] = tested on: mice; conditions: Intravenous LD50-rate in mice
[4] = stability constant, Cu
[5] = stability constant, Zn
[6] = stability constant

O=C(O)CN1CCNCCN(CC(=O)O)CCN(CC(=O)O)CC1 [DO3A]
Log KGdL [1]: 21.0
Log Ksel [2]: 4.13
LD50 [3]: 7 to 9 mmol/kg
Log KCuL [4]: 22.87
Log KZnL [5]: 19.26
Log KCal [6]: 11.74

O=C(O)CN1CCN(CC(=O)O)CCN(CC(=O)O)CCN(CC(=O)O)CC1 [DOTA, 1,4,7,10-tetraazacyclododecane-1,4,7,10-tetraacetic acid]
Log KGdL [1]: 24.6
Log Ksel [2]: 8.3
LD50 [3]: 11 mmol/kg
Log KCuL [4]: 22.63
Log KZnL [5]: 21.05
Log KCal [6]: 17.23

O=C(O)CN(CCN(CC(=O)O)CC(=O)O)CCN(CC(=O)O)CC(=O)O [DTPA]
Log KGdL [1]: 22.46
Log Ksel [2]: 7.04
LD50 [3]: 5.6 mmol/kg
Log KCuL [4]: 21.38
Log KZnL [5]: 18.29
Log KCal [6]: 10.75

O=C(O)CN(CCN(CC(=O)O)CC(=O)O)CC(=O)O [EDTA]
Log KGdL [1]: 17.7
Log Ksel [2]: 4.23
Log KCuL [4]: 18.78
Log KZnL [5]: 16.5
Log KCal [6]: 10.61

CC(O)CN1CCN(CC(=O)O)CCN(CC(=O)O)CCN(CC(=O)O)CC1 (centres unmarked) [HP-DO3A]
Log KGdL [1]: 23.8
Log Ksel [2]: 6.95
LD50 [3]: 12 mmol/kg
Log KCuL [4]: 22.84
Log KZnL [5]: 19.37
Log KCal [6]: 14.83
